Test results from patent US20120053227A1, “miR-33 INHIBITORS AND USES THEREOF” (New York University, priority 2010, published 2012).

Legend:
[1] = system: 3′ UTR of Crot, Cpt1a, Hadhb, Ampkα, and Irs2; assay: 3′ UTR luciferase reporter assay, Crot, Cpt1a, Hadhb, Ampkα, Irs2; assay type: cell-based; settings: only modest differences between miR-33a and miR-33b
Excerpt: (§1) cDNA fragments corresponding to the entire 3′ UTR of carnitine O-octaniltransferase (Crot), carnitine palmitoyltransferase 1A (Cpt1a), hydroxyacyl-CoAdehydrogenase (Hadhb), AMP kinase subunit-α (Ampkα), and insulin receptor substrate 2 (Irs2), citrate synthase (Cs), 3-hydroxy-3-methylglutaryl CoA (Hmgcr), and Sirtuin 6 (Sirt6) were amplified by RT-PCR from total RNA extracted from HepG2 cells with XhoI and NotI linkers. The PCR products were directionally cloned downstream of the Renilla luciferase ORF of the ψCHECK2 vector (Promega) that also contains a constitutively expressed firefly luciferase gene, which is used to normalize transfections. Point mutations in the seed region of predicted miR-33 sites within the 3′ UTR of Crot, Cpt1a, Hadhb, Ampkα, and Sirt6 were generated using Multisite-Quickchange (Stratagene) according to the manufacturer's protocol. All constructs were confirmed by sequencing. COS-7 cells were plated into 12-well plates (Costar) and cotransfected with 1 μg indicated 3′ UTR luciferase reporter vectors and the miR-33 mimic or negative control mimic (CM) (Dharmacon) using Lipofectamine 2000 (Invitrogen). Luciferase activity was measured using the Dual-Glo Luciferase Assay System (Promega). […]

[2] = system: Huh7 cells; assay: mRNA and protein expression of miR-33 target genes in transfected Huh7 cells; assay type: cell-based; settings: for CROT, CPT1a, HADHB, AMPKα, SIRT6, and IRS2 protein expression: to a similar extent for miR-33a and miR-33b
Procedure: Total RNA was isolated using TRIzol reagent (Invitrogen) according to the manufacturer's protocol. For mRNA quantification, cDNA was synthesized using Taqman RT reagents (Applied Biosystems), following the manufacturer's protocol. Quantitative real-time PCR was performed in triplicate using iQ SYBR green Supermix (BioRad) on iCycler Real-Time Detection System (BioRad). The mRNA level was normalized to GAPDH as a house keeping gene. The primers sequences used were: […]
(§2) HepG2 and Huh7 cells were transfected with 40 nM miRIDIAN miRNA mimics (miR-33) or 60 nM miRIDIAN miRNA inhibitors (anti-miR-33) (Dharmacon) using Oligofectamine (Invitrogen). All experimental control samples were treated with an equal concentration of a nontargeting control mimic sequence (CM) or an inhibitor negative control sequence (CI) to control for nonsequence-specific effects in miRNA experiments

[3] = system: Huh7 cells; assay: AKT and ERK phosphorylation after insulin stimulation; assay type: cell-based
Procedure: Cell were lysed in ice-cold buffer containing 50 mM Tris-HCl, pH 7.5, 125 mM NaCl, 1% NP-40, 5.3 mM NaF, 1.5 mM NaP and 1 mM orthovanadate, 175 mg/ml octylglucopyranoside and 1 mg/ml of protease inhibitor cocktail (Roche) and 0.25 mg/ml AEBSF (Roche). Cell lysates were rotated at 4° C. for 1 h before the insoluble material were removed by centrifugation at 12000×g for 10 min. After normalizing for equal protein concentration, cell lysates were resuspended in SDS sample buffer before separation by SDS-PAGE. Following overnight transfer of the proteins onto nitrocellulose membranes. The membranes were probed with the indicated antibodies, and protein bands were visualized using the Odyssey Infrared Imaging System (LI-COR Biotechnology). Densitometry analysis of the gels was carried out using ImageJ software from the NIH (http://rsbweb.nih.gov/ij/).
as §2

[4] = system: Huh7 cells; assay: Triglyceride content and synthesis in Huh7 cells incubated with oleate and starved; assay type: cell-based; settings: oleate 24 h then starved 24 h
Procedure: The accumulation of neutral lipids and lipid droplet formation was next evaluated tin Huh7 cells incubated with oleate for 24 h and then starved for the next 24 h. […] The increase in triglyceride content was independent of changes in triglyceride synthesis rates.

[5] = system: Sirt6 3′ UTR; assay: 3′ UTR luciferase reporter assay, Sirt6; assay type: cell-based, human
Excerpt: as §1

[6] = system: Huh7 cells; assay: Fatty acid β-oxidation assay ([14C]-oleate); assay type: cell-based
Procedure: HepG2 and Huh7 cells were transfected with miR-33 (20 nM), anti-miR-33 (40 nM), or negative control (con-miR and con-inh, respectively), and the rate of fatty acid oxidation was determined. Cells were cultured in the presence of [^14C]-oleate (Perkin-Elmer)-BSA complex, and the released [^14C]-carbon dioxide was trapped for 1 h at 37° C. onto filter paper soaked in 100 mM sodium hydroxide. The rate of β-oxidation was calculated as the amount of trapped [^14C]-carbon dioxide in relative units produced per milligram of protein per hour. Experiments were performed in triplicate in p60 plates and were repeated at least three times.

[7] = system: Huh7 cells; assay: 2-Deoxyglucose uptake; assay type: cell-based
Procedure: Huh7 cells were transfected with miR-33b (20 nM) or negative control (Con-miR) for 48 h. Then, cells were cultured in serum-free media for 24 h, washed two times, and placed into warmed buffer for 2 h before glucose uptake studies. Insulin (100 nM) was added for 10 min. After this, […] 2-deoxyglucose (2-DOG) was added to each well (Perkin-Elmer). After 5 min, 5% unlabeled glucose was added to stop the reaction. Cells were then washed two times in 5% glucose and lysed by the addition of 0.5% SDS; 3 mL Ultima Gold scintillant (Packard) were added, samples were vortexed, and radioactivity was counted.

Substance	3′ UTR activity of Crot, Cpt1a, Hadhb, Ampkα, and Irs2 [1]	CROT, CPT1a, HADHB, AMPKα, SIRT6, and IRS2 protein expression [2]	AKT and ERK phosphorylation [3]	triglycerides (TAG) accumulation [4]	SIRT6 mRNA and protein levels [2]	miR-33b expression after transfection, increase [2]	mRNA levels of CROT, CPT1a, HADHB, AMPKα, and IRS2 ([2]; anti-miR-33b: CROT, CPT1a, AMPKα, IRS2)	3′ UTR activity of Sirt6 [5]	miR-33b expression, fold increase [6]	rate of fatty acid β-oxidation [6]	insulin-induced 2-deoxyglucose (2-DOG) uptake [7]
miR-33a: miR-33a transfected into Huh7 cells; human miR-33a sequence GUGCAUUGUAGUUGCAUUGCA (SEQ ID NO:32) (listed as RNA, chemistry not given here; listed as Homo sapiens)	significantly inhibited	inhibited	–	–	–	–	–	–	–	–	–
miR-33b: miR-33b transfected into Huh7 cells; human miR-33b sequence GUGCAUUGCUGUUGCAUUGC (SEQ ID NO:34) (listed as RNA, chemistry not given here; listed as Homo sapiens)	significantly inhibited	inhibited	reduced	accumulated more triglycerides	significantly inhibited	32 fold	significantly inhibited	markedly repressed	27 fold	markedly reduced	reduced
